The source of these data is patent US20190330197A1, “SUBSTITUTED NAPHTHALENE DIIMIDES AND THEIR USE” (UCL Business PLC, priority 2015, published 2019).

For assay [1], the system named is ALT (Alternative Lengthening of Telomeres) cell line. Briefly: SRB growth inhibition, ALT. It is filed as cell-based, human. To be noted: 96 hr, SRB assay; read-out: short-term 96 hr IC50 ALT. Here is the method:
(§1) Human cancer cell lines and the somatic human cell line WI-38 (lung fibroblast) were purchased from the American Type Culture Collection. Cell lines were maintained in appropriate medium supplemented with 10% foetal bovine serum (Invitrogen, UK), 2 mM L-glutamine (Invitrogen, Netherlands), and other components as specified by the suppliers. Cell lines were maintained at 37° C., 5% CO2 and routinely passaged. Drugs were dissolved in DMSO and filtered through 0.22 μm pore-size filter units before addition to cell line appropriate media. Cellular growth inhibition was measured using the sulforhodamine B (SRB) assay in 96 well plates. Fifty percent inhibitory concentrations (IC50) were determined by taking the mean absorbance at 540 nm for each drug concentration expressed as a percentage of the absorbance of untreated control wells.
In general terms: The SRB assay estimates cell density from bound dye.

The subject of assay [2] is Bcl-2 sequence from the promoter region of the bcl-2 gene. Put plainly: FRET quadruplex stabilisation assay, Bcl-2. It counts as binding. Particulars: compound at 1 μM, 60 mM potassium cacodylate buffer pH 7.4. The text has this:
(§2) The ability of the naphthalene diimide compounds to stabilize quadruplex DNA sequences was investigated using a fluorescence resonance energy transfer (FRET) assay modified to be used as a high-throughput screen in a 96-well format. Several quadruplex sequences were studied (including the human telomeric G-quadruplex DNA sequence 5′-FAM-d(GGG[TTAGGG]3)-TAMRA-3′ and the duplex sequence 5′-FAM-d[…]-HEG-[…]-TAMRA-3′ (HEG linker: [(—CH2—CH2—O—)6.
(§3) The labelled oligonucleotides have attached to them the donor fluorophore FAM: 6-carboxyfluorescein and the acceptor fluorophore TAMRA: 6-carboxytetramethylrhodamine. The FRET probe sequences were diluted from stock to the correct concentration (400 nM) in a 60 mM potassium cacodylate buffer (pH 7.4) and then annealed by heating to 85° C. for 10 min, followed by cooling to room temperature in the heating block. The compound was stored as a 10 mM stock solution in DMSO; final solutions (at 2× concentration) were prepared using 10 mM HCl in the initial 1:10 dilution, after which 60 mM potassium cacodylate buffer (pH 7.4) was used in all subsequent steps. The maximum HCl concentration in the reaction volume (at a ligand concentration of 20 μM) is thus 200 μM, well within the range of the buffer used. Relevant controls were also performed to check for interference with the assay. 96-Well plates (MJ Research, Waltham, Mass.) were prepared by aliquoting 50 μl of the annealed DNA into each well, followed by 50 μl of the compound solutions. Measurements were made on a DNA Engine Opticon (MJ Research) with excitation at 450-495 nm and detection at 515-545 nm. Fluorescence readings were taken at intervals of 0.5° C. in the range 30-100° C., with a constant temperature being maintained for 30 s prior to each reading to ensure a stable value. Final analysis of the data was carried out using a script written in the program Origin 7.0 (OriginLab Corp., Northampton, Mass.). The advanced curve-fitting function in Origin 7.0 was used for calculation of ΔTm values. All determinations were performed in triplicate or better. Esds in ΔTm are ±0.1° C.

For assay [3], the system named is Hsp90A sequence from the HSP90 promoter. Put plainly: FRET quadruplex stabilisation assay, Hsp90A. It is filed as binding. To be noted: compound at 1 μM, 60 mM potassium cacodylate buffer pH 7.4.
Source text: as §2, §3

In another assay the test system is A549 (lung cancer) cells. Briefly: SRB growth inhibition, A549. To be noted: 96 hr, SRB assay; read-out: short-term 96 hr IC50 A549. It is filed as cell-based, human. As for the experimental part: as §1
The subject of assay [4] is Mia-PaCa2 (pancreatic cancer) cells. Briefly: SRB growth inhibition, MiaPaCa2. It is filed as cell-based, human. To be noted: 96 hr, SRB assay; read-out: short-term 96 hr IC50 MiaPaCa2. Here is the method: as §1
The subject of assay [5] is subcutaneous xenograft of the pancreatic tumour cell line MiaPaCa-2. Briefly: Antitumour activity in MiaPaCa-2 subcutaneous xenograft. It counts as in vivo, CD1 nude mice. To be noted: 15 mg/kg IV twice weekly, FIG. 1. From the text: Study the therapeutic effect of compound 4c (MM41-tri) in comparison to MM41 and Gemcitabine in CD1 nude mice carrying a subcutaneous xenograft of the pancreatic tumour cell line MiaPaCa-2 (5×10^6 cells in the right flank) grown with Matrigel.
• 1 Inoculate SC 5×10^6 Miapaca-2 cells in the right flank (unsupplemented RPMI+Matrigel). • 2 Wait for tumours to establish subcutaneously (approx. 11 days). • 3 Measure size of the tumours weekly until they reach a mean size of 0.1 cm^3. At this stage of the development of the tumours, mice are ready to begin the therapy study. • 4 Re group mice to form 5 therapeutic groups constituted of 8 mice each, carrying approximately 0.1 cm^3 average of the tumour size per group. • 5 Administered corresponding dose of MM41 or compound 4c or Gemcitabine by IV. • Group 1: 8 mice treated with 15 mg/Kg of Gemcitabine twice weekly dose. • Group 2: 8 mice treated with 15 mg/Kg of MM41 (tetrasubstituted ND compound) twice weekly dose. • Group 3: 8 mice treated with 15 mg/Kg of Compound 4c twice weekly dose. • Group 4: 8 mice treated with 10 mg/Kg of Compound 4c twice weekly dose. • Group 5: 8 control mice treated with saline only twice weekly.

The subject of assay [6] is Panc1 (pancreatic cancer) cells. Put plainly: SRB growth inhibition, Panc1. It is filed as cell-based, human. Particulars: 96 hr, SRB assay; read-out: short-term 96 hr IC50 Panc1. As for the experimental part:
as §1

Assay [7] has as its system Kras32 sequence from the promoter region of the kras gene. Put plainly: FRET quadruplex stabilisation assay, Kras32. It counts as binding. Particulars: compound at 1 μM, 60 mM potassium cacodylate buffer pH 7.4.
Source text: as §2, §3

In assay [8] the test system is Kras21 sequence from the promoter region of the kras gene. Briefly: FRET quadruplex stabilisation assay, Kras21. Particulars: compound at 1 μM, 60 mM potassium cacodylate buffer pH 7.4. It counts as binding.
Source text: as §2, §3

Assay [9] deals with Hsp90B sequence from the HSP90 promoter. Put plainly: FRET quadruplex stabilisation assay, Hsp90B. It counts as binding. To be noted: compound at 1 μM, 60 mM potassium cacodylate buffer pH 7.4.
Source text: as §2, §3

Another assay concerns MCF7 (breast) cells. Put plainly: SRB growth inhibition, MCF7. It is filed as cell-based, human. To be noted: 96 hr, SRB assay; read-out: short-term 96 hr IC50 MCF7. As for the experimental part: as §1
Assay [10] deals with human telomeric (F21T) G-quadruplex DNA. Briefly: FRET quadruplex stabilisation assay, F21T. Particulars: compound at 1 μM, 60 mM potassium cacodylate buffer pH 7.4. It is filed as binding.
Source text: as §2, §3

Assay [11] has as its system WI38 (lung fibroblast) cells. Briefly: SRB growth inhibition, WI38. It counts as cell-based, human. To be noted: 96 hr, SRB assay; read-out: short-term 96 hr IC50 WI38. Here is the method:
as §1

What is called IC50 is the concentration at which inhibition is half-maximal. For `O=C1c2ccc3c4c(c(NCCN5CCCC5)cc(c24)C(=O)N1CCCN1CCOCC1)C(=O)N(CCCN1CCOCC1)C3=O` [Compound 4c, 2,7-bis(3-morpholinopropyl)-4-((2-(pyrrolidin-1-yl)ethyl)amino)benzo[Imn][3,8]phenanthroline-1,3,6,8(2H,7H)-tetraone], the IC50 is 93 nM in assay [1]; 24 nM in the assay with A549 (lung cancer) cells; 12 nM in assay [4]; 22 nM in assay [6]; 159 nM in the assay on MCF7 (breast) cells; 1190 nM in assay [11]. In addition, the “ΔTm Bcl-2” value in assay [2] came out at 13.3 °C. In addition, the “ΔTm Hsp90A” value in assay [3] came to 15.7 °C. Further, the “anti-tumour response (tumour growth curve)” value in assay [5] is “highly significant anti-tumour response”. In addition, the “ΔTm Kras32” value in assay [7] amounted to 9.6 °C. Besides, in [8], the “ΔTm Kras21” value is 11.0 °C. Also, the “ΔTm Hsp90B” value in assay [9] turned out to be 12.7 °C. For the same compound, the “ΔTm F21T” value in [10] was determined as 11.8 °C.
